What was measured:
[1] = molecular target: T1, PcGSTd1 (Panonychus citri, UniProt H9BTE1); assay: CDNB-GSH conjugation, absorbance […] nm; assay type: biochemical; details: 0.6 mM CDNB, 5 mM GSH, 0.05 M Tris-HCl pH 7.5; ECA 0.05-2 mM
T1 construct: full ORF in pET-28a (BamHI/NotI), His-tag kept (Ni-NTA), E. coli TransBL21(DE3); EC 2.5.1.18
T1 sequence (H9BTE1 1-217): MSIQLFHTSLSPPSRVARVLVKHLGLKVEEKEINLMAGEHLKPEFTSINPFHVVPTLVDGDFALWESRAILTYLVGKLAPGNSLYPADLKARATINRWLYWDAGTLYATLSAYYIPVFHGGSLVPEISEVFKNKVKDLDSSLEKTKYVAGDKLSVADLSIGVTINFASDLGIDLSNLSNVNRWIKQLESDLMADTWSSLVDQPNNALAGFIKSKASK

[2] = molecular target: T1, PcGSTd1; assay: CDNB-GSH conjugation, absorbance […] nm, Lineweaver-Burk; assay type: biochemical; details: co-substrate GSH; 28 C

SMILES | IC50 [1] [mM] | Km [2] [µM]
C=C(CC)C(=O)c1ccc(OCC(=O)O)c(Cl)c1Cl [ethacrynic acid] | 1.13 ± 0.12 | 
O=[N+]([O-])c1ccc(Cl)c([N+](=O)[O-])c1 [1-chloro-2,4-dinitrobenzene] |  | 1820 ± 490
